Measurements: patent US12492173B2, “Herbicidal substituted N-tetrazolyl aryl carboxamides” (Bayer Aktiengesellschaft, priority 2019, dated 2025)

How the values were obtained:
Format in all cases: in vivo
Abutilon theophrasti [1] = assay: Pre-emergence herbicidal action, ABUTH; parameters: key to Herbicidal action against ABUTH: % activity: 100 = plants have died, 0 = like control plants; details: for herbicidal action ABUTH / herbicidal activity ABUTH: dosage 320 g/ha; for herbicidal activity ABUTH: scored visually after 3 weeks vs untreated controls (100% = plants have died)
Summary of the method: (§1)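 Herbicidal activity is expressed in percent, scored by eye after a 3-week greenhouse period, with 0% matching untreated plants and 100% meaning death. Compounds, as wettable powders or emulsion concentrates, are applied pre-emergence to the covering soil.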

Abutilon theophrasti [2] = assay: Post-emergence herbicidal action, ABUTH; parameters: key: % herbicidal action vs untreated; 100 = plants died, 0 = like control
Summary of the method: (§2)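 Treatment: post-emergence spray, one-leaf stage. Medium: sandy loam, greenhouse. Carrier: 600–800 l/ha water, 0.2% wetting agent. Read-out: visual % activity at ~3 weeks, untreated plants as reference.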

Matricaria inodora = assay: Post-emergence herbicidal action, MATIN; parameters: key: % herbicidal action vs untreated; 100 = plants died, 0 = like control
Summary of the method: as §2

Pharbitis purpurea = assay: Post-emergence herbicidal action, PHBPU
Summary of the method: as §2

Setaria viridis = assay: Post-emergence herbicidal action, SETVI; parameters: key: % herbicidal action vs untreated; 100 = plants died, 0 = like control
Summary of the method: as §2

Stellaria media = assay: Post-emergence herbicidal action, STEME; parameters: key: % herbicidal action vs untreated; 100 = plants died, 0 = like control
Summary of the method: as §2

Polygonum convolvulus = assay: Pre-emergence herbicidal action, POLCO; details: dosage 320 g/ha, scored visually after 3 weeks vs untreated controls (100% = plants have died)
Summary of the method: as §1

[3] = comparative experiment, post-emergence, 20 g of a.i./ha

SMILES | herbicidal action ABUTH (Abutilon theophrasti [1]) | herbicidal action ABUTH (Abutilon theophrasti [2]; Dosage 80 g/ha) | herbicidal action MATIN (Matricaria inodora; Dosage 80 g/ha) | herbicidal action PHBPU (Pharbitis purpurea; Dosage 80 g/ha) | herbicidal action SETVI (Setaria viridis; Dosage 80 g/ha) | herbicidal action STEME (Stellaria media; Dosage 80 g/ha) | other results
CSCc1c(Cl)ccc(C(=O)Nc2nnnn2C)c1Cl [Example 1-559] | 100% |  |  |  |  |  | herbicidal action ABUTH (Abutilon theophrasti [2]; post-emergence, dosage 80 g/ha): 90%; herbicidal action MATIN (Matricaria inodora; post-emergence, dosage 80 g/ha): 100%; herbicidal action PHBPU (Pharbitis purpurea; post-emergence, dosage 80 g/ha): 100%; herbicidal action SETVI (Setaria viridis; post-emergence, dosage 80 g/ha): 100%; herbicidal action STEME (Stellaria media; post-emergence, dosage 80 g/ha): 100%
C=CCSCc1c(C(F)(F)F)ccc(C(=O)Nc2nnnn2CCC)c1Cl [Example 3-308] |  | 100 | 100 | 90 | 100 | 100 | herbicidal activity ABUTH (Abutilon theophrasti [1]): 100%
CCn1nnnc1NC(=O)c1ccc(I)c(C[S+](C)[O-])c1Cl (stereo not drawn) [Example 2-363] |  | 100 | 100 | 90 | 90 | 100 | herbicidal activity ABUTH (Abutilon theophrasti [1]): 100%
CCCn1nnnc1NC(=O)c1ccc(C(F)(F)F)c(CSC)c1SC [Example 3-161] | 100% | 100 | 90 | 90 | 100 | 100 | 
Cn1nnnc1NC(=O)c1ccc(C(F)(F)F)c(CSCC(F)(F)F)c1Cl [Example 1-311] |  | 100 | 100 | 100 | 100 | 100 | herbicidal activity ABUTH (Abutilon theophrasti [1]): 100%
CCn1nnnc1NC(=O)c1ccc(Cl)c(CSC)c1Cl [Example 2-559] | 100% | 90 | 100 | 100 | 100 | 100 | 
CCCn1nnnc1NC(=O)c1ccc(C(F)(F)F)c(CSCC2CC2)c1Cl [Example 3-314] |  |  |  |  |  |  | herbicidal activity ABUTH (Abutilon theophrasti [1]): 100%; herbicidal action ABUTH (Abutilon theophrasti [2]; post-emergence, dosage 80 g/ha): 100%; herbicidal action MATIN (Matricaria inodora; post-emergence, dosage 80 g/ha): 100%; herbicidal action PHBPU (Pharbitis purpurea; post-emergence, dosage 80 g/ha): 100%; herbicidal action SETVI (Setaria viridis; post-emergence, dosage 80 g/ha): 100%; herbicidal action STEME (Stellaria media; post-emergence, dosage 80 g/ha): 100%
CCn1nnnc1NC(=O)c1ccc(C(F)(F)F)c(CS(=O)(=O)CC)c1C [Example 2-88] | 100% | 80 | 90 | 90 | 90 | 100 | 
CCCn1nnnc1NC(=O)c1ccc(S(C)(=O)=O)c(CSC)c1C [Example 3-37] | 80% | 80 | 90 | 80 | 90 | 100 | 
CSCc1c(I)ccc(C(=O)Nc2nnnn2C)c1Cl [Example 1-362] |  |  |  |  |  |  | herbicidal activity ABUTH (Abutilon theophrasti [1]): 100%; herbicidal action ABUTH (Abutilon theophrasti [2]; post-emergence, dosage 80 g/ha): 100%; herbicidal action MATIN (Matricaria inodora; post-emergence, dosage 80 g/ha): 100%; herbicidal action PHBPU (Pharbitis purpurea; post-emergence, dosage 80 g/ha): 100%; herbicidal action SETVI (Setaria viridis; post-emergence, dosage 80 g/ha): 90%; Herbicidal action against STEME (Stellaria media; comparative experiment, post-emergence, 5 g of a.i./ha): 90; herbicidal action STEME (Stellaria media; post-emergence, dosage 80 g/ha): 100%
CCn1nnnc1NC(=O)c1ccc(C(F)F)c(CSC)c1Cl [Example 2-320] |  | 100 |  | 90 | 100 | 100 | herbicidal activity ABUTH (Abutilon theophrasti [1]): 100%; herbicidal activity POLCO (Polygonum convolvulus): 90%
CCn1nnnc1NC(=O)c1ccc(C(F)(F)F)c(CS(=O)(=O)CC)c1Cl [Example 2-301] | 100% | 80 | 90 | 90 | 90 | 100 | 
CCCn1nnnc1NC(=O)c1ccc(C(F)(F)F)c(CS(=O)(=O)CC)c1Cl [Example 3-301] | 100% | 80 | 100 | 100 | 90 | 100 | 
CSCc1c(C)ccc(C(=O)Nc2nnnn2C)c1Cl [Example 1-287] | 100% | 100 | 100 |  | 90 | 100 | 
CCS(=O)(=O)c1c(C(F)(F)F)ccc(C(=O)Nc2nnnn2C)c1Br [Example V-13, 2-bromo-3-(ethylsulfonyl)-N-(1-methyl-1-1H-tetrazol-5-yl)-4-(trifluoromethyl)benzamide, reference compound] |  |  |  |  |  |  | Herbicidal action against ABUTH (Abutilon theophrasti [1]; comparative experiment, 80 g of a.i./ha): 0; Herbicidal action against MATIN (Matricaria inodora; [3]): 0; Herbicidal action against PHBPU (Pharbitis purpurea; [3]): 0; Herbicidal action against SETVI (Setaria viridis; [3]): 0; Herbicidal action against STEME (Stellaria media; [3]): 0
CCCn1nnnc1NC(=O)c1ccc(S(C)(=O)=O)c(CS(C)(=O)=O)c1C [Example 3-39] | 100% | 90 | 80 | 90 | 90 | 90 | 
CCCn1nnnc1NC(=O)c1ccc(C(F)(F)F)c(CSCC(F)(F)F)c1Cl [Example 3-311] | 100% | 100 | 100 | 100 | 80 | 100 | 
COc1c(C(=O)Nc2nnnn2C)ccc(C(F)(F)F)c1C[S+](C)[O-] (stereo not drawn) [Example 1-135] | 100% | 90 | 100 | 90 | 100 | 90 | 
CCn1nnnc1NC(=O)c1ccc(S(C)(=O)=O)c(CS(C)(=O)=O)c1Cl [Example 2-280] | 100% |  |  |  |  |  | Herbicidal action against PHBPU (Pharbitis purpurea; post-emergence, dosage 80 g/ha): 90; Herbicidal action against SETVI (Setaria viridis; post-emergence, dosage 80 g/ha): 80; Herbicidal action against STEME (Stellaria media; post-emergence, dosage 80 g/ha): 100
COCCSCc1c(C(F)(F)F)ccc(C(=O)Nc2nnnn2C)c1Cl [Example 1-305] |  |  |  |  |  |  | herbicidal activity ABUTH (Abutilon theophrasti [1]): 100%; herbicidal action ABUTH (Abutilon theophrasti [2]; post-emergence, dosage 80 g/ha): 100%; herbicidal action MATIN (Matricaria inodora; post-emergence, dosage 80 g/ha): 100%; herbicidal action PHBPU (Pharbitis purpurea; post-emergence, dosage 80 g/ha): 100%; herbicidal action SETVI (Setaria viridis; post-emergence, dosage 80 g/ha): 100%; herbicidal action STEME (Stellaria media; post-emergence, dosage 80 g/ha): 100%
CCCn1nnnc1NC(=O)c1ccc(C(F)(F)F)c(CS(C)(=O)=O)c1Br [Example 3-382] | 100% | 100 | 90 | 100 | 100 | 100 | 
CCn1nnnc1NC(=O)c1ccc(C(F)F)c(C[S+](C)[O-])c1C (stereo not drawn) [Example 2-108] | 100% | 100 | 100 | 100 | 90 | 100 | 
CCCn1nnnc1NC(=O)c1ccc(I)c(C[S+](C)[O-])c1Cl (stereo not drawn) [Example 3-363] | 100% | 90 | 100 | 90 | 100 | 100 | 
CCS(=O)(=O)Cc1c(C(F)(F)F)ccc(C(=O)Nc2nnnn2C)c1C [Example 1-88] | 100% | 80 | 90 | 90 | 90 | 100 | 
